Measured values published in patent EP4768499A1, “MACROCYCLIC PEPTIDE COMPOUND HAVING CELL MEMBRANE PERMEABILITY AND METABOLIC STABILITY, AND LIBRARY CONTAINING SAME” (Chugai Seiyaku Kabushiki Kaisha, priority 2023, dated 2025).
Like-named read-outs stand apart in the source and are kept apart here. Starred links: 1 amine or outer side, 2 acyl side, 3 side chain; linkers in the order of their positions; H or OH if unused. Positions of bridges follow the written chain, without caps; N, C: chain ends. Non-standard residues stand in square brackets, D forms with d. Residues, ends and D or L forms follow the SMILES beside them. *: point of attachment. NMeF = CN[C@@H](Cc1ccccc1)C(=O)O; NMeI = CC[C@H](C)[C@H](NC)C(=O)O; NMeT = CN[C@H](C(=O)O)[C@@H](C)O; hPhe = N[C@@H](CCc1ccccc1)C(=O)O; NMeβAla = CN(CCC(=O)[*:2])[*:1]; NMeD = CN[C@@H](CC(=O)O)C(=O)O; NMeL = CN[C@@H](CC(C)C)C(=O)O; dNMeV = CN[C@@H](C(=O)O)C(C)C; NMeV = CN[C@H](C(=O)O)C(C)C; d(β3hA) = C[C@@H](N)CC(=O)O; NMeAbu = CC[C@H](NC)C(=O)O; NMeA = CN[C@@H](C)C(=O)O; Piperidide = C1CCN(*)CC1; Abu = CC[C@H](N)C(=O)O; NBuGly = CCCCNCC(=O)O; Sar = CNCC(=O)O; tBu = CC(C)(C)*

How the values were obtained:
[1] = Mouse PK test: plasma concentration after intravenous or oral administration; format: in vivo, mice (C57BL/6J); conditions: C57BL/6J, plasma, male mice; for AUC(0-inf): read-out: AUCinf; for half-life: read-out: t1/2 (converted)
Description: We evaluated the plasma concentration changes after intravenous or oral administration of four types of peptides that satisfy these conditions to mice.
To male mice (C57BL/6J, 10 weeks old, purchased from Charles River Laboratories Japan, Inc.: 3 mice per group), the compound was administered intravenously at a dose of 1 mg/kg or orally at a dose of 50 mg/kg, and blood was collected from the jugular vein over time up to 24 hours after administration. The collected blood was dispensed into tubes that were pre-treated with heparin as an anticoagulant. Plasma was separated from the blood by centrifugation, and after deproteinization with acetonitrile, the plasma concentration of the compound was measured with an LC/MS/MS device (XEVO TQ-XS, manufactured by Waters Corporation).

Caco-2 cells = assay: Membrane permeability test using Caco-2 cells with preincubation; format: in vitro ADME; conditions: Caco-2 cells, preincubation 20 to 24 hours; apical FaSSIF/HBSS 1% DMSO pH 6.0, basal HBSS 4% BSA pH 7.4; basal sample at 180 minutes
[2] = as above; format: in vitro ADME; conditions: Caco-2; preincubation 20 to 24 hours; Apical FaSSIF/HBSS pH 6.0, Basal HBSS 4% BSA pH 7.4; 180 minutes; read-out: Caco2 Papp
[3] = Metabolic stability test: liver microsomal stability assay; format: in vitro ADME, mouse; conditions: mouse liver microsomes 0.5 mg protein/mL, compound 1 µM; for microsomal CLint at 1 µM: male, pH 7.4, presence of NADPH, read-out: Mouse Hepatic Microsome CLh,int NADPH(+); for Mouse Hepatic Microsome CLh,int NADPH(-): absence of NADPH
[4] = intravenous administration, 1 mg/kg

Row | Compound | AUC(0-inf) [1, 4] [ng·h/mL] | clearance ([1]; intravenous administration, 1 mg/kg, read-out: CL) [mL/min/kg] | Vd ([1]; intravenous administration, 1 mg/kg, read-out: Vss) [L/kg] | half-life [1, 4] [h] | bioavailability ([1]; oral 50 mg/kg vs intravenous 1 mg/kg, bioavailability, read-out: F) [%] | AUC(0-inf) ([1]; oral administration, 50 mg/kg) [ng·h/mL] | Cmax ([1]; oral administration, 50 mg/kg, read-out: Cmax) [ng/mL] | Tmax ([1]; oral administration, 50 mg/kg, read-out: Tmax) [h] | half-life ([1]; oral administration, 50 mg/kg) [h] | Caco2 Papp (10^-6 cm/sec) (Caco-2 cells) | Papp A→B [2] [×10⁻⁶ cm/s] | microsomal CLint at 1 µM [3] [µL/min/mg] | Mouse Hepatic Microsome CLh,int NADPH(-) [3] [µL/min/mg Protein]
1 | CC[C@H](C)[C@@H]1NC(=O)[C@H](CC(C)C)N(C)C(=O)C[C@@H](C)NC(=O)[C@H](C(C)C)N(C)C(=O)[C@H](COC(C)(C)C)NC(=O)[C@H](CC)N(C)C(=O)[C@H](Cc2ccccc2)N(C)C(=O)[C@H](CC(C)C)NC(=O)[C@@H]2CCCN2C(=O)[C@H]([C@@H](C)O)N(C)C(=O)[C@H](CC(C)C)N(C)C(=O)[C@H](CC)N(C)C(=O)[C@H](C(C)C)NC(=O)[C@H](CC(C)C)N(C)C1=O [pd057] (cyclo(I[NMeL]V[NMeAbu][NMeL][NMeT]PL[NMeF][NMeAbu]S(tBu)[NMeV][d(β3hA)][NMeL])) | 1200 | 14 | 11 | 12 | 33 | 20000 | 2200 | 2.7 | 6.6 | 1.16 10^-6 cm/sec | 1.16 | 50.4 | 44.8
2 | CC[C@H](C)[C@@H]1NC(=O)CN(C)C(=O)C[C@@H](C(=O)N2CCCCC2)N(C)C(=O)[C@H](CC(C)C)NC(=O)[C@H](CC(C)C)N(C)C(=O)[C@H]([C@@H](C)O)NC(=O)[C@H](Cc2ccccc2)N(C)C(=O)[C@H](CC(C)C)NC(=O)[C@H](C(C)C)N(C)C(=O)[C@H](C)N(C)C(=O)[C@H](CC(C)C)N(C)C(=O)[C@H](CCc2ccccc2)NC(=O)[C@H](CC(C)C)N(C)C1=O [pd160] ([Sar]I[NMeL][hPhe][NMeL][NMeA][NMeV]L[NMeF]T[NMeL]L[NMeD]-Piperidide; lactam N-13) |  |  |  |  |  |  |  |  |  | 0.06 10^-6 cm/sec | 0.06 | 21.5 | 22.3
3 | CC(C)C[C@@H]1NC(=O)[C@H](C(C)C)N(C)C(=O)[C@H](Cc2ccccc2)N(C)C(=O)[C@H](COC(C)(C)C)NC(=O)[C@H](CC(C)C)N(C)C(=O)[C@H](C)N(C)C(=O)[C@H]([C@@H](C)O)NC(=O)[C@H](CC(C)C)N(C)C(=O)[C@H](C(C)C)N(C)C(=O)[C@H](CCc2ccccc2)NC(=O)[C@H](CC(C)C)N(C)C(=O)[C@@H](C(C)C)N(C)C(=O)C[C@@H](C(=O)N2CCCCC2)N(C)C1=O [pd161] ([dNMeV][NMeL][hPhe][NMeV][NMeL]T[NMeA][NMeL]S(tBu)[NMeF][NMeV]L[NMeD]-Piperidide; lactam N-13) |  |  |  |  |  |  |  |  |  | 0.09 10^-6 cm/sec | 0.09 | 35.3 | 37.0
4 | CC[C@@H]1NC(=O)[C@H](CC(C)C)N(C)C(=O)[C@H]([C@@H](C)O)NC(=O)[C@H](C(C)C)N(C)C(=O)[C@H](Cc2ccccc2)N(C)C(=O)[C@@H](C(C)C)NC(=O)C[C@@H](C(=O)N2CCCCC2)N(C)C(=O)CN(C)C(=O)[C@H](Cc2ccccc2)N(C)C(=O)[C@H](C)N(C)C(=O)[C@H](COC(C)(C)C)NC(=O)[C@H](CC(C)C)N(C)C(=O)CN(C)C1=O [pd162] ([dV][NMeF][NMeV]T[NMeL][Abu][Sar][NMeL]S(tBu)[NMeA][NMeF][Sar][NMeD]-Piperidide; lactam N-13) |  |  |  |  |  |  |  |  |  | 0.51 10^-6 cm/sec | 0.51 | 12.5 | 16.3
5 | CC[C@@H]1NC(=O)[C@H](Cc2ccccc2)N(C)C(=O)[C@H](CC(C)C)N(C)C(=O)[C@H](CC(C)C)NC(=O)[C@H](C)N(C)C(=O)C[C@@H](C(=O)N2CCCCC2)N(C)C(=O)[C@H](CC(C)C)N(C)C(=O)[C@H]([C@@H](C)CC)NC(=O)[C@H](Cc2ccccc2)N(C)C(=O)[C@H]([C@@H](C)O)N(C)C(=O)[C@H]([C@@H](C)CC)N(C)C(=O)[C@H](CC(C)C)NC(=O)CN(C)C1=O [pd163] ([NMeA]L[NMeL][NMeF][Abu][Sar]L[NMeI][NMeT][NMeF]I[NMeL][NMeD]-Piperidide; lactam N-13) |  |  |  |  |  |  |  |  |  | 0.04 10^-6 cm/sec | 0.04 | 28.2 | 36.5
6 | CC[C@H](C)[C@@H]1NC(=O)[C@@H]2CCCN2C(=O)[C@H](C(C)C)N(C)C(=O)[C@H](CC(C)C)N(C)C(=O)C[C@@H](C(=O)N2CCCCC2)N(C)C(=O)[C@H](CC(C)C)NC(=O)[C@H](CC(C)C)N(C)C(=O)[C@H](C)NC(=O)[C@@H]2CCCN2C(=O)[C@H]([C@@H](C)O)NC(=O)[C@H](CC(C)C)N(C)C(=O)CN(C)C(=O)[C@H](Cc2ccccc2)N(C)C1=O [pd164] ([NMeL][NMeV]PI[NMeF][Sar][NMeL]TPA[NMeL]L[NMeD]-Piperidide; lactam N-13) |  |  |  |  |  |  |  |  |  | 0.06 10^-6 cm/sec | 0.06 | 14.6 | 10.0
7 | CC[C@H](C)[C@@H]1NC(=O)CN(C)C(=O)C[C@@H](C(=O)N2CCCCC2)N(C)C(=O)[C@H](Cc2ccccc2)N(C)C(=O)[C@H](CC(C)C)N(C)C(=O)[C@H]([C@@H](C)O)NC(=O)[C@H](CC(C)C)N(C)C(=O)[C@H](CC(C)C)NC(=O)[C@H](C(C)C)N(C)C(=O)[C@H](C)N(C)C(=O)[C@H](CC(C)C)N(C)C(=O)[C@H](CCc2ccccc2)NC(=O)[C@H](CC(C)C)N(C)C1=O [pd165] ([Sar]I[NMeL][hPhe][NMeL][NMeA][NMeV]L[NMeL]T[NMeL][NMeF][NMeD]-Piperidide; lactam N-13) |  |  |  |  |  |  |  |  |  | 0.10 10^-6 cm/sec | 0.1 | 40.9 | 27.2
8 | CC[C@H](C)[C@@H]1NC(=O)[C@H](CC(C)C)N(C)C(=O)[C@H](CC(C)C)NC(=O)CCN(C)C(=O)C[C@@H](C(=O)N2CCCCC2)N(C)C(=O)[C@H](CC(C)C)N(C)C(=O)[C@H](C)N(C)C(=O)[C@H]([C@@H](C)O)N(C)C(=O)[C@H](CC(C)C)N(C)C(=O)[C@H](COC(C)(C)C)NC(=O)[C@H](Cc2ccccc2)N(C)C(=O)[C@H](CC(C)C)N(C)C(=O)[C@H](Cc2ccccc2)N(C)C1=O [pd166] ([NMeβAla]L[NMeL]I[NMeF][NMeL][NMeF]S(tBu)[NMeL][NMeT][NMeA][NMeL][NMeD]-Piperidide; lactam N-13) |  |  |  |  |  |  |  |  |  | 0.13 10^-6 cm/sec | 0.13 | 32.4 | 34.0
9 | CC[C@@H]1NC(=O)[C@H](Cc2ccccc2)N(C)C(=O)[C@H]([C@@H](C)O)NC(=O)[C@H](CC(C)C)N(C)C(=O)[C@H](C)N(C)C(=O)C[C@@H](C(=O)N2CCCCC2)N(C)C(=O)[C@H](CC(C)C)N(C)C(=O)[C@H]([C@@H](C)CC)N(C)C(=O)CN(C)C(=O)[C@H](CC(C)C)NC(=O)[C@H](Cc2ccccc2)N(C)C(=O)[C@H](CC(C)C)N(C)C(=O)[C@H]([C@@H](C)CC)N(C)C1=O [pd167] ([NMeA][NMeL]T[NMeF][Abu][NMeI][NMeL][NMeF]L[Sar][NMeI][NMeL][NMeD]-Piperidide; lactam N-13) |  |  |  |  |  |  |  |  |  | 0.23 10^-6 cm/sec | 0.23 | 35.9 | 33.0
10 | CCCCN1CC(=O)N(C)[C@@H](Cc2ccccc2)C(=O)N[C@@H](CC(C)C)C(=O)N(C)[C@@H](C(C)C)C(=O)N(C)[C@@H](C)C(=O)N[C@@H](COC(C)(C)C)C(=O)N(C)[C@@H](CC)C(=O)N(C)[C@H](C(=O)N2CCCCC2)CC(=O)N(C)CC(=O)N(C)[C@@H](Cc2ccccc2)C(=O)N[C@@H]([C@@H](C)CC)C(=O)N(C)[C@@H](CC(C)C)C(=O)N(C)[C@@H]([C@@H](C)O)C1=O [pd168] ([Sar][NMeF]I[NMeL][NMeT][NBuGly][NMeF]L[NMeV][NMeA]S(tBu)[NMeAbu][NMeD]-Piperidide; lactam N-13) |  |  |  |  |  |  |  |  |  | 1.11 10^-6 cm/sec | 1.11 | 21.9 | 21.8
